Patent publication US20180206498A1, “SUBSTITUTED HETEROARYL CARBOXYLIC ACID HYDRAZIDES OR SALTS THEREOF AND USE THEREOF TO INCREASE STRESS TOLERANCE IN PLANTS” (Bayer CropScience Aktiengesellschaft, priority 2015, published 2018)

These compounds were tested on Triticum aestivum (assay: Drought stress in vivo analysis Part B, appearance vs stressed control plants in categories). Details: spray 25 g/ha.
Design: key: 0: no positive effect; +: slight positive effect; ++: clear positive effect; +++: strong positive effect
Protocol: (§1) Seeds of monocotyledonous and dicotyledonous crop plants were sown in sandy loam in plastic pots, covered with soil or sand and cultivated in a greenhouse under good growth conditions. The test plants are treated at the early leaf stage (BBCH10-BBCH13). To assure uniform water supply before commencement of stress, the potted plants were supplied with water by dam irrigation prior to substance application. The inventive compounds were first formulated as wettable powders (WP) or dissolved in a solvent mixture. The further dilution was effected with water supplemented with 0.2% wetting agent (e.g. agrotin). The finished spray liquor was sprayed onto the green parts of the plant at an equivalent water application rate of 600 I/ha. Substance application was followed immediately by stress treatment of the plants. Drought Stress was Induced by Gradual Drying Out Under the Following Conditions: “Day”: 14 hours with illumination at […]-30° C. “Night”: 10 hours without illumination at 18-20° C. The duration of the respective stress phases was guided mainly by the condition of the stressed control plants. It was ended (by re-irrigating and transfer to a greenhouse with good growth conditions) as soon as irreversible damage was observed on the stressed control plants. The end of the stress phase was followed by an about 4-7-day recovery phase, during which the plants were once again kept under good growth conditions in a greenhouse. The duration of the recovery phase was guided mainly by when the trial plants had attained a state which enabled visual scoring of potential effects, and was therefore variable. Once this juncture had been reached, the appearance of the plants treated with test substances was recorded in comparison to the stressed control plants by the following categories: [table] In order to rule out any influence on the effects observed by any fungicidal or insecticidal action of the test compounds, it was additionally ensured that the tests proceeded without fungal infection or insect infestation. The values reported in tables B-1 and […] below are mean values of the results from at least three repeats. Effects of selected compounds of the general formula (I) under drought stress according to the following tables B-1 and B-2: BRSNS=Brassica napus ZEAMX=Zea mays TRZAS=Triticum aestivum

Structure (SMILES) | Effect (TRZAS)
CN(C)N(Cc1ccc(F)cc1F)C(=O)c1c(C(F)(F)F)nn(C)c1Cl [Compound A1-15] | +
CN(C)N(Cc1ccccc1C#N)C(=O)c1c(C(F)(F)F)nn(C)c1F [Compound A2-61] | +
CN(C)N(Cc1cccc(Cl)c1Cl)C(=O)c1cn(C)nc1C(F)(F)F [Compound A4-4, N-(2,3-dichlorobenzyl)-N′,N′, 1-trimethyl-3-(trifluoromethyl)-1H-pyrazole-4-carbohydrazide] | +
CN(C)N(Cc1ccccc1C#N)C(=O)c1cn(C)nc1C(F)(F)F [Compound A4-61] | +
CN(C)N(Cc1ccccc1Cl)C(=O)c1cn(C)nc1C(F)F [Compound A8-1] | +
CN(C(=O)OC(C)(C)C)N(Cc1ccc(Cl)cc1Cl)C(=O)c1c(C(F)F)nn(C)c1F [Compound A13-5] | +
CN(C(=O)OC(C)(C)C)N(Cc1ccccc1Cl)C(=O)c1c(C(F)F)nn(C)c1Cl [Compound A14-1] | +
CN(C(=O)OC(C)(C)C)N(CCc1ccc(Cl)cc1Cl)C(=O)c1c(C(F)F)nn(C)c1Cl [Compound A14-615] | +
Cn1nc(C(F)F)c(C(=O)N(Cc2ccccc2C#N)N2CCCC2)c1Cl [Compound A18-61] | +
CN(C)N(Cc1ccccn1)C(=O)c1ccsc1C(F)F [Compound B3-21] | +
CCc1sccc1C(=O)N(Cc1ccccc1Cl)N(C)C [Compound B4-1] | +
CCc1sccc1C(=O)N(Cc1ccccn1)N(C)C [Compound B4-21] | +
CCc1sccc1C(=O)N(Cc1ccccc1C#N)N(C)C [Compound B4-61] | +
Cc1nc(-c2cccnc2)sc1C(=O)N(Cc1ccccc1C#N)N(C)C [Compound D1-61] | +
Cc1nc(-c2cccnc2)sc1C(=O)N(Cc1ccccc1C#N)N1CCCC1 [Compound D2-61] | +
CN(C)N(Cc1cccc(Cl)c1Cl)C(=O)c1sc(Cl)nc1Cl [Compound D6-4] | +
CN(C)N(Cc1ccccc1F)C(=O)c1sc(Cl)nc1Cl [Compound D6-11] | +
CN(C)N(Cc1ccccc1C#N)C(=O)c1sc(Cl)nc1Cl [Compound D6-61] | +
CN(C)N(Cc1ccc(Cl)nc1)C(=O)c1snc(Cl)c1Cl [Compound E1-94] | +
CC(Cc1ccccc1)N(C(=O)c1snc(Cl)c1Cl)N(C)C (centres unmarked) [Compound E1-351] | +
N#Cc1ccccc1CN(C(=O)c1snc(Cl)c1Cl)N1CCCC1 [Compound E5-61] | +
CC(C)c1nnsc1C(=O)N(Cc1ccc(Cl)nc1)N(C)C [Compound F2-94] | +
CN(C)N(Cc1ccccc1Cl)C(=O)c1snc(N)c1Cl [Compound G1-1] | +
CN(C)N(Cc1ccccn1)C(=O)c1cc(OCc2ccccc2)ns1 [Compound G10-21] | +
O=C(c1cnsn1)N(Cc1ccc(F)cc1F)N1CCCC1 [Compound H2-15] | ++

Same assay, conditions: spray 250 g/ha

Structure (SMILES) | Effect (TRZAS)
CCn1nc(C(F)F)c(C(=O)N(Cc2ccccc2C#N)N(C)C)c1F [Compound A7-61] | ++
Cn1cc(C(=O)N(Cc2ccccc2C#N)N2CCCC2)c(C(F)F)n1 [Compound A20-61] | +
CNN(Cc1ccccc1Cl)C(=O)c1c(C(F)F)nn(C)c1F [Compound A22-1] | +
CCn1nc(C(F)F)c(C(=O)N(Cc2nccc(Cl)c2Cl)N2CCCC2)c1F [Compound A24-40] | +
CCn1nc(C(F)F)c(C(=O)N(Cc2cccnc2C#N)N2CCCC2)c1F [Compound A24-679] | +
CN(C)N(Cc1ccccc1C#N)C(=O)c1ccsc1C(F)F [Compound B3-61, N-(2-Cyanobenzyl)-2-(difluoromethyl)-N′,N′-dimethylthiophene-3-carbohydrazide] | +
Cc1occc1C(=O)N(Cc1ccccc1C#N)N(C)C [Compound C3-61] | +
Cc1nc(-c2cccnc2)sc1C(=O)N(Cc1ccccc1Cl)N(C)C [Compound D1-1] | +
Cc1nc(-c2cccnc2)sc1C(=O)N(Cc1cccc(Cl)c1Cl)N(C)C [Compound D1-4] | +
CN(C)N(Cc1ccccn1)C(=O)c1sc(Cl)nc1Cl [Compound D6-21] | +
CN(C)N(Cc1ncc(C(F)(F)F)cc1Cl)C(=O)c1sc(Cl)nc1Cl [Compound D6-36] | +
CN(C)N(Cc1ccc(Cl)nc1)C(=O)c1sc(Cl)nc1Cl [Compound D6-94] | +
CN(C)N(Cc1ccccc1Cl)C(=O)c1snc(Cl)c1Cl [Compound E1-1] | +
CN(C)N(Cc1ccc(Cl)cc1)C(=O)c1snc(Cl)c1Cl [Compound E1-3] | +
CN(C)N(Cc1ccccc1C#N)C(=O)c1snc(Cl)c1Cl [Compound E1-61] | +
Cc1nnsc1C(=O)N(Cc1cccc(Cl)c1Cl)N(C)C [Compound F1-4] | +
Cc1nnsc1C(=O)N(Cc1ccccc1C#N)N(C)C [Compound F1-61] | +
CC(C)c1nnsc1C(=O)N(Cc1ccccc1Cl)N(C)C [Compound F2-1, N-(2-Chlorobenzyl)-4-isopropyl-N′,N′-dimethyl-1,2,3-thiadiazole-5-carbohydrazide] | +
CN(C)N(Cc1ncc(C(F)(F)F)cc1Cl)C(=O)c1ccns1 [Compound G8-36] | ++
O=C(c1ccns1)N(Cc1ccc(F)cc1F)N1CCCC1 [Compound G9-15] | +
O=C(c1ccns1)N(Cc1ccc(Cl)nc1)N1CCCC1 [Compound G9-94] | ++
CN(C)N(Cc1ccccc1F)C(=O)c1cc(OCc2ccccc2)ns1 [Compound G10-11] | +
CN(C)N(Cc1ncc(C(F)(F)F)cc1Cl)C(=O)c1cc(OCc2ccccc2)ns1 [Compound G10-36] | ++
CN(C)N(Cc1ccccc1C#N)C(=O)c1cc(OCc2ccccc2)ns1 [Compound G10-61] | +
Cc1c(OCc2ccccc2)nsc1C(=O)N(Cc1ncc(C(F)(F)F)cc1Cl)N(C)C [Compound G11-36] | ++
O=C(c1cnsn1)N(Cc1ccccc1Cl)N1CCCC1 [Compound H2-1] | +
O=C(c1cnsn1)N(Cc1ccc(Cl)cc1)N1CCCC1 [Compound H2-3] | +
N#Cc1ccccc1CN(C(=O)c1cnsn1)N1CCCC1 [Compound H2-61] | +

What follows are compounds tested on Brassica napus in the same assay as above. Details: spray 25 g/ha.
Design: key: 0: no positive effect; +: slight positive effect; ++: clear positive effect; +++: strong positive effect
Protocol: as §1

Structure (SMILES) | Effect (BRSNS)
CN(C)N(Cc1ccc(F)cc1F)C(=O)c1c(C(F)(F)F)nn(C)c1Cl [Compound A1-15] | ++
CN(C)N(Cc1ccccc1C#N)C(=O)c1c(C(F)(F)F)nn(C)c1F [Compound A2-61] | ++
Cc1nc(-c2cccnc2)sc1C(=O)N(Cc1ccccc1Cl)N(C)C [Compound D1-1] | +
Cc1nc(-c2cccnc2)sc1C(=O)N(Cc1ccccn1)N1CCCC1 [Compound D2-21] | +
CN(C)N(Cc1ccccc1Cl)C(=O)c1sc(Cl)nc1Cl [Compound D6-1] | +
CN(C)N(Cc1cccc(Cl)c1Cl)C(=O)c1sc(Cl)nc1Cl [Compound D6-4] | +
CN(C)N(Cc1cccc(Cl)c1)C(=O)c1snc(N)c1Cl [Compound G1-2] | +
CN(C)N(Cc1ccccc1F)C(=O)c1ccns1 [Compound G8-11] | +
CN(C)N(Cc1ccccn1)C(=O)c1cnsn1 [Compound H1-21] | +

Same assay, conditions: spray 250 g/ha

Structure (SMILES) | Effect (BRSNS)
CN(C(=O)OC(C)(C)C)N(Cc1ccccc1Cl)C(=O)c1c(C(F)F)nn(C)c1F [Compound A13-1] | ++
Cn1cc(C(=O)N(Cc2ccccc2Cl)N2CCCC2)c(C(F)F)n1 [Compound A20-1] | +
CNN(Cc1ccccc1Cl)C(=O)c1c(C(F)F)nn(C)c1F [Compound A22-1] | +
CCn1nc(C(F)F)c(C(=O)N(Cc2nccc(Cl)c2Cl)N2CCCC2)c1F [Compound A24-40] | +
CN(C)N(Cc1nccc(Cl)c1Cl)C(=O)c1ccsc1C(F)F [Compound B3-40] | +
CN(C)N(Cc1ccccc1F)C(=O)c1sc(Cl)nc1Cl [Compound D6-11] | +
CN(C)N(Cc1ccccc1C#N)C(=O)c1sc(Cl)nc1Cl [Compound D6-61] | +
CN(C)N(Cc1cccc(Cl)c1Cl)C(=O)c1snc(Cl)c1Cl [Compound E1-4] | +
CCN(CC)N(Cc1ccccc1C#N)C(=O)c1snc(Cl)c1Cl [Compound E2-61] | +
Cc1nnsc1C(=O)N(Cc1cccc(Cl)c1Cl)N(C)C [Compound F1-4] | +
Cc1nnsc1C(=O)N(Cc1ccc(Cl)nc1)N(C)C [Compound F1-94] | +
CC(C)c1nnsc1C(=O)N(Cc1cccc(Cl)c1Cl)N(C)C [Compound F2-4] | +
CC(C)c1nnsc1C(=O)N(Cc1nccc(Cl)c1Cl)N(C)C [Compound F2-40] | +
CN(C)N(Cc1cccc(Cl)c1Cl)C(=O)c1cc(OCc2ccccc2)ns1 [Compound G10-4] | +
O=C(c1cnsn1)N(Cc1ncc(C(F)(F)F)cc1Cl)N1CCCC1 [Compound H2-36] | ++
